The values that follow are results of earlier work, collected in US11865207B2, “Topical pharmaceutical composition for treatment of anal fissures and hemorrhoids” (Ferring B.V., priority 2018, dated 2024).

For this series, the system named is anal fissures. The note with it: 2% topical diltiazem in an ointment.

Consider `COc1ccc([C@@H]2Sc3ccccc3N(CCN(C)C)C(=O)[C@@H]2OC(C)=O)cc1` [diltiazem], for which the healing rate is 75%.
